The values below come from ChEMBL document CHEMBL3639075, “Aryl-benzocycloalkyl amide derivatives” (2013).

A word on the IC50: it is the concentration at which inhibition is half-maximal. As a reminder, the Ki is the dissociation constant of the complex between target and ligand, obtained from inhibition or displacement. Low values mean higher affinity, high ones lower affinity.

The target of assay [1] is T1, B1 bradykinin receptor (Homo sapiens, UniProt P46663).
T1 sequence (P46663 whole entry): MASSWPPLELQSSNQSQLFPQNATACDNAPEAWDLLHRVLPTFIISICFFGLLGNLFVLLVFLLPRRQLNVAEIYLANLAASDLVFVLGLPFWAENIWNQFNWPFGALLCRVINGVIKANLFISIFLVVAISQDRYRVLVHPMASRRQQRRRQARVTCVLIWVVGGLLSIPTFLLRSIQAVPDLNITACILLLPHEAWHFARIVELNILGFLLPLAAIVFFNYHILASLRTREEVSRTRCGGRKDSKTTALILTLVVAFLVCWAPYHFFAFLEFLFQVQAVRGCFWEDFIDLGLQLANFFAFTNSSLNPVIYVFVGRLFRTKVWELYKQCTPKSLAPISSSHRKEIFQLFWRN
Put plainly: Calcium Mobilization Assay: Calcium mobilization assay using Bradykinin-1 receptor. Type of assay: functional.

Assay [2] deals with T1, B1 bradykinin receptor. Put plainly: Binding Assay: Binding assay using Bradykinin-1 receptor.

Regarding `Cc1nc(-c2c(F)cc(Cl)cc2-c2ccc3c(c2)CC[C@@H]3NC(=O)C2(NC(=O)c3nnc(C)o3)CC2)no1`, the IC50 on B1 bradykinin receptor [1] stood at 3.4 nM. The Ki on B1 bradykinin receptor [2] was determined as 9.5 nM.
